Where two headings read alike, the source gives them in different places.
Assays:
Cx43 HCs = biological target: T1, Cx43 HCs (Homo sapiens, UniProt P17302); test: Cx43-dependent growth complementation assay in E. coli LB2003; format: cell-based; details: for inhibition at 15 µM / Cx43 inhibition (%): 15 μM; for Cx43/Cx26 Selectivity: IC50 Cx26/IC50 Cx43; for IC50: read-out: Cx43 IC50
T1 construct: expressed in transfected cells

human Cx26 HCs = biological target: T2, human Cx26 HCs (Homo sapiens, UniProt P29033); test: Cx26-dependent growth complementation assay in E. coli LB2003; format: cell-based; details: for IC50: read-out: Cx26 IC50
T2 construct: expressed in transfected cells; host or cells: E. coli LB2003 (carrying pREP4), transformed with pQE-Cx26, IPTG-induced
Method: These derivatives were prepared by sequential benzylation and methylation followed by reduction of azido groups or hydrogenolysis of the Bn. […] Connexin HC inhibition was conducted using a bacteria-based assay of HC function^39. In this assay, Cx26 HCs are expressed in E. coli LB2003 cells, which lack three major K^+ uptake systems (Kdp, Kup and Trk), and as a result they cannot grow in low-[K^+] media^39-41. However, growth of this E. coli strain in low-[K^+] medium can be rescued by expression of K^+-permeable channels such as connexin HCs^39, 42-43. Under the conditions of the assay (LB2003 cells expressing HCs and grown in low-K^+ medium), inhibition of the HCs reduces or abolishes growth^39, 42-43. This is a simple assay where bacterial growth in multi-well plates can be followed by measuring the absorbance at 600 nm (OD600)^29.
LB2003 cells generously provided by Dr. E. P. Bakker (Osnabruk University, Osnabruk, Germany) were transformed with the plasmid pQE-Cx26 (human Cx26 into pQE60) and pREP4. […] LB2003 cells cannot grow in low-[K^+] media because of insufficient K^+ uptake for growth due to the knockout of three key K^+ transporters (Atrk, Akup, Akdp strain)^2-4. Details and validation of the growth complementation assay have been published recently^2. In brief, competent LB2003 containing the pREP4 plasmid were transformed with pQE-Cx26. These cells were grown overnight in Luria-Bertani medium (BD, Franklin Lakes, NJ, USA) supplemented with 100 mM KCl (to allow growth) and 0.4 mg/mL ampicillin, and then washed four times with NLM (see below), to remove residual K^+ from the Luria-Bertani medium. The washed cells were resuspended in complementation growth medium to an OD600 of 0.2. NLM contained 46 mM Na2HPO4, 23 mM NaH2PO4, 8 mM (NH4)2SO4, 0.4 mM MgSO4, 0.012 mM FeSO4, 1 mM sodium citrate, 44 mM glucose and 0.006 mM thiamine hydrochloride, pH 7.0. KLM had the same composition that NLM except for the equimolar replacement of Na^+ with K^+. For growth complementation we used NLM+4 mM KCl, and Cx26 expression was induced with 0.5 mM IPTG at the time of dilution to OD600=0.2. For the assay, the cells were seeded in 96-well plates and were incubated at 30° C., with shaking at 500 rpm. OD600 was measured after 18-h incubation in a plate reader. The initial OD600=0.2 was subtracted for growth calculations. Data are presented as means±SEM. Statistically significant differences were calculated by the Student t-test for unpaired data. Data were obtained from at least 3 independent experiments, with 3 repeats per experiment.

[1] = K members, the 21st table, read-out: Cx43 % inhibition
[2] = Table 3, read-out: Cx243% inhibition
[3] = Table 6, read-out: Cx43 (% inhibition)
[4] = the 15th table, second Cx43 column, sub-head and unit not given
[5] = the 15th table, sub-head and unit inferred
[6] = the 15th table, Cx26, sub-head and unit not given
[7] = the 15th table, Cx26, unit not given (cf. the 22nd table)
[8] = KI members, the 23rd table, read-out: Cx43 % inhibition

T1 sequence (P17302 whole entry): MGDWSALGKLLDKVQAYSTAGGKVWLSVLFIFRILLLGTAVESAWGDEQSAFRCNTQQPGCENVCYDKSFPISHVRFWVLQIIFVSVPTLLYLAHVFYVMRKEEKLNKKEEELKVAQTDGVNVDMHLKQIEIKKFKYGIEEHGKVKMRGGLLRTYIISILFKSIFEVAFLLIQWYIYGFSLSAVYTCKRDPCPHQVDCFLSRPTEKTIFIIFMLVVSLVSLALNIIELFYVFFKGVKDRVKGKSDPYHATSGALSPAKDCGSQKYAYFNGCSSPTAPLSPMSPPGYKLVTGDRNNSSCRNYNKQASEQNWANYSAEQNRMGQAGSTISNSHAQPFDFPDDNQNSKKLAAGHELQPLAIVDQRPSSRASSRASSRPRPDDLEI

SMILES	inhibition at 15 µM (Cx43 HCs; [1]) [%]	inhibition at 15 µM (Cx43 HCs; [2]) [%]	inhibition at 50 µM (Cx43 HCs; [1]) [%]	inhibition at 50 µM (Cx43 HCs; [2]) [%]	inhibition at 15 µM (human Cx26 HCs; Table 3) [%]	inhibition at 50 µM (human Cx26 HCs; Table 3) [%]	inhibition at 15 µM (Cx43 HCs; [3]) [%]	inhibition at 50 µM (Cx43 HCs; [3]) [%]	inhibition at 15 µM (human Cx26 HCs; Table 6) [%]	inhibition at 50 µM (human Cx26 HCs; Table 6) [%]	IC50 (Cx43 HCs; Table 7) [µM]	Cx43 Imax (Cx43 HCs; [4])	IC50 (Cx43 HCs; [5]) [µM]	Cx26 Imax (human Cx26 HCs; [6])	IC50 (human Cx26 HCs; [7]) [µM]	inhibition at 15 µM (Cx43 HCs; [8]) [%]	inhibition at 50 µM (Cx43 HCs; [8]) [%]	further results
NCC1O[C@H](OC2C(N)CC(N)C(OC3O[C@H](CNC(=O)c4ccccc4-c4c5ccc(=O)cc-5oc5cc(O)ccc45)C(O)C(N)[C@H]3O)[C@H]2O)C(O)C(O)[C@@H]1O (stereo partly shown) [Compound K40]	45.3 ± 2.7	45.3 ± 2.7	55.1 ± 5.8	55.1 ± 5.8	37.1 ± 13.5	81 ± 1.7	–	–	–	–	–	–	–	–	–	–	–	–
COc1ccc(OC[C@H]2OC(OC3C(N)CC(N)C(O[C@H]4OC(CN)[C@@H](O)C(O)C4O)[C@@H]3O)[C@H](O)C(N)C2O)cc1 (stereo partly shown) [Compound K81]	20 ± 7.4	20 ± 7.4	34.8 ± 7.8	34.8 ± 7.8	15.9 ± 4.2	36.5 ± 4.7	20 ± 7.4	34.8 ± 7.8	15.9 ± 4.2	36.5 ± 4.7	–	–	–	–	–	–	–	–
Cc1ccc(OC[C@H]2OC(OC3C(N)CC(N)C(O[C@H]4OC(CN)[C@@H](O)C(O)C4O)[C@@H]3O)[C@H](O)C(N)C2O)cc1 (stereo partly shown) [Compound K82]	58.4 ± 10.6	–	71 ± 14.1	–	19.3 ± 2.2	28.2 ± 4.5	> 50	76.8 ± 5.8	19.3 ± 2.2	28.2 ± 4.5	6.2 ± 1.4	91.1 ± 11.5	7.1 ± 1.4	–	–	–	–	Cx43 inhibition (%) (Cx43 HCs; Table 6, listed as 8b): 63.8 ± 6.8%; Cx43/Cx26 Selectivity (Cx43 HCs; Table 7, listed as 8b): 7.97; Cx43 Imax (Cx43 HCs; the 22nd table): 91.1 ± 11.5%; IC50 (Cx43 HCs; the 22nd table): 7.1 ± 1.4 µM; Cx43 Imax (Cx43 HCs; the 24th table): 91.1 ± 11.5%; IC50 (Cx43 HCs; the 24th table): 7.1 ± 1.4 µM; IC50 (human Cx26 HCs; Table 7): 49.4 ± 9.3 µM
NCC1O[C@H](OC2C(N)CC(N)C(OC3O[C@H](COc4ccc(Cl)cc4)C(O)C(N)[C@H]3O)[C@H]2O)C(O)C(O)[C@@H]1O (stereo partly shown) [Compound K84]	45.8 ± 6.4	–	76.7 ± 7.7	–	44.4 ± 7	69.5 ± 4.5	> 50	68.3 ± 4.6	44.4 ± 7	69.5 ± 4.5	8.9 ± 1.6	80.6 ± 6.0	8.9 ± 1.6	95.9 ± 10.9	17.2 ± 3.2	–	–	Cx43 inhibition (%) (Cx43 HCs; Table 6, listed as 8d): 50.3 ± 1.0%; Cx43/Cx26 Selectivity (Cx43 HCs; Table 7): 1.93; Cx43 Imax (Cx43 HCs; the 22nd table): 80.6 ± 6.0%; IC50 (Cx43 HCs; the 22nd table): 8.9 ± 1.6 µM; Cx43 Imax (Cx43 HCs; the 24th table): 80.6 ± 6.0%; IC50 (Cx43 HCs; the 24th table): 8.9 ± 1.6 µM; Cx26 Imax (human Cx26 HCs; the 22nd table): 95.9 ± 10.9%; Cx26 Imax (human Cx26 HCs; the 24th table): 95.9 ± 10.9%
CCCCCCCC(=O)NCC1O[C@H](OC2C(N)CC(N)C(OC3O[C@H](CO)C(O)C(N)[C@H]3O)[C@H]2O)C(O)C(O)[C@@H]1O (stereo partly shown) [KI02]	–	17 ± 5.2	–	37.2 ± 7.6	14 ± 2.1	25.2 ± 2.3	17 ± 5.2	37.2 ± 7.6	14 ± 2.1	25.2 ± 2.3	–	–	–	–	–	17 ± 5.2	37.2 ± 7.6	–
CCCCCCCCCC(=O)NCC1O[C@H](OC2C(N)CC(N)C(OC3O[C@H](CO)C(O)C(N)[C@H]3O)[C@H]2O)C(O)C(O)[C@@H]1O (stereo partly shown) [KI03]	–	44.4 ± 5.3	–	53.5 ± 1.9	16.1 ± 3.2	33.6 ± 3.8	44.4 ± 5.3	53.5 ± 1.9	16.1 ± 3.2	33.6 ± 3.8	–	–	–	–	–	44.4 ± 5.3	53.5 ± 1.9	–
CCCCCCCCCCCC(=O)NCC1O[C@H](OC2C(N)CC(N)C(OC3O[C@H](CO)C(O)C(N)[C@H]3O)[C@H]2O)C(O)C(O)[C@@H]1O (stereo partly shown) [KI04]	–	–	–	–	16.4 ± 2.3	56.2 ± 6.8	> 50	70.9 ± 2.3	16.4 ± 2.3	56.2 ± 6.8	9.7 ± 1.8	82.2 ± 5.9	9.7 ± 1.8	118.0 ± 7.6	66.7 ± 6.9	43.9 ± 4.3	58.2 ± 3.9	Cx43 inhibition (%) (Cx43 HCs; Table 6, listed as 4i): 53.6 ± 4.6%; Cx43/Cx26 Selectivity (Cx43 HCs; Table 7, listed as 4i): 6.88
NC1CC(N)C(O[C@H]2OC(CNC(=O)c3cc(-c4ccccc4)nc4ccccc34)[C@@H](O)C(O)C2O)[C@H](O)C1OC1O[C@H](CO)C(O)C(N)[C@H]1O (stereo partly shown) [KI08]	–	25.5 ± 7.1	–	51 ± 2.5	8.8 ± 2	22.8 ± 2.2	25.5 ± 7.1	51 ± 2.5	8 ± 2	22.8 ± 2.2	–	–	–	–	–	25.5 ± 7.1	51 ± 2.5	–
NC1CC(N)C(O[C@H]2OC(CNC(=O)CCCc3ccc4ccc5cccc6ccc3c4c56)[C@@H](O)C(O)C2O)[C@H](O)C1OC1O[C@H](CO)C(O)C(N)[C@H]1O (stereo partly shown) [KI09]	–	–	–	–	36.9 ± 3.9	79.2 ± 7.5	> 50	69.6 ± 7.5	36.9 ± 3.9	79.2 ± 7.5	8.6 ± 1	80.2 ± 7.0	8.6 ± 3	95.3 ± 3.5	18.6 ± 2.1	43 ± 10.7	56.8 ± 11	Cx43 inhibition (%) (Cx43 HCs; Table 6, listed as 4e): 52.2 ± 8.8%; Cx43/Cx26 Selectivity (Cx43 HCs; Table 7): 2,16
